In patent publication US5629198A (priority 1991, dated 1997):

Columns and labels:
[1] = tested on: MOLT-4; test: Killing effect on uninfected cells (Test Example 1), trypan blue; type: cell-based, human; settings: 3 days
Description: (§1) The cell killing effects of test substances were determined using a cell strain persistently infected with HIV in MOLT-4 cells and MOLT-4 cells.
(§2) MOLT4/HTLV-IIIB, MOLT4/ARV and MOLT4 cell strains were separately inoculated in proportions of 4×10^4 cells/well (200 μl) on a 96-well plate, and the above test substances in various concentrations were separately added in an amount of 20 μl thereto. After each cell sample was cultured for 3 days at 37° C. in the presence of 5% CO2, the culture was diluted to a triple or quadruple amount, thereby counting the number of living cells by a trypan blue dye exclusion test. As a control, 20 μl of PBS were added in place of each test substance. Each numerical value is expressed in terms of the percentage of living cells to the control.

[2] = tested on: HTLV-IIIB in MT-4 cells; test: Anti-HIV effect: TCID50 of infectious virus from infected MT-4 cells (Test Example 5); type: cell-based, HIV (HTLV-IIIB); settings: for TCID50 (quantity of infectious virus): 4 days, positive control 3.31 × 10^7; for proliferation inhibiting effect on HIV: summary
Description: The inhibitory effects of test substances on the cytopathy and HIV antigen production of MT-4 cells due to HIV infection were determined.
MT-4 cells belonging to a cell strain persistently infected with HTLV-1 are high in sensitivity to HIV and promptly die out when infected. MT-4/HIV cells which are MT-4 cells infected with HIV are used for screening anti-HIV agents making good use of this nature.
After MT-4 cells (1.2×10^7 cells) were infected for 2 hours at 37° C. with 3.2 ml of HTLV-IIIB (10^7 TCID50 /ml) obtained from a culture supernatant of a cell strain persistently infected with HIV, i.e., […], the cells were washed. After the cells were then inoculated on a 48-well microplate in a proportion of 1×10^5 cells/well, the test substances were separately added in an amount of 100 μl. As a negative control, there was used a culture obtained by adding 3.2 ml of a culture supernatant after culturing MOLT-4 cells for 3 days to MT-4 cells (4.7×10^6 cells), conducting culture for 2 hours at 37° C., washing the cells in the same manner as described above, inoculating them in a proportion of 1×10^5 cells/well and adding PBS in place of the test substances.
Upon elapsed time of 4 days after the culture, each supernatant was assayed on a P24gag protein based on an EIA kit produced by Abbott Labs, and the number of living cells was counted by the Trypan Blue dye exclusion method, and moreover, TCID50 indicative of an actual quantity of infectious virus was calculated.

[3] = tested on: MOLT-4/ARV; test: Killing effect on cells persistently infected with HIV (Test Example 1), trypan blue; type: cell-based, human; settings: 3 days
Description: as §1, §2

[4] = tested on: MOLT-4/HTLV-IIIB; test: as above; type: cell-based, human; settings: for killing effect on HIV-infected cells: summary
Description: as §1, §2

[5] = tested on: cells persistently infected with HIV; settings: cited from earlier work
[6] = in vivo; cited from earlier work
[7] = tested on: Molt-4/C18 cells infected with Molt-4/HTLV-IIIB culture supernatant; test: Inhibiting effect on cytopathy, MTT assay (Test Example 8 (2)); type: cell-based; settings: Homo sapiens, MOLT-4, 96 h, read-out: Number of living cells
Description: (2) The inhibiting effects of test substances on the formation of multinucleated giant cells and on cytopathy in a Molt-4/C18 cell-infected system were investigated.
Molt-4/C18 cells in a logarithmic growth phase were inoculated in a proportion of 2×10^4 cells/well (20 μl) on a 96-well flat-bottom plate, and 30 μl of a culture supernatant of Molt-4/HTLV-IIIB cells were added. Then, solutions of the test substances in various concentrations were separately added in an amount of 50 μl, followed by their culture at 37° C. under conditions of 5% CO2. To wells for a positive control, 50 μl of a culture medium were added in place of the solution of each test substance, while to wells for a negative control, 30 μl of the culture medium were added instead of the culture supernatant. Defining the day the culture was started as Day 0, the culture was continuously conducted for 4 days to observe a state of formation of multinucleated giant cells and to count the number of living cells by the MTT assay.

[8] = tested on: MT-4/LAV-infected system; settings: cited from earlier work
[9] = Homo sapiens, MOLT-4, 72 h, 1 μM, read-out: living cells (percentage to the control)

## C=CC1=C(C)c2cc3[n-]c(cc4[n-]c(cc5nc(cc1n2)C(C)=C5C=C)c(C)c4CCC(=O)O)c(CCC(=O)O)c3C.[Cl-].[Fe+3] [Hemin]
[1]; 10 μM
  living cells (percentage to the control): 98%
[1]; 40 μM
  living cells (percentage to the control): 99%
[2]; 10 μM
  TCID50 (quantity of infectious virus): 1.52 × 10^7 TCID50 /ml
[2]
  proliferation inhibiting effect on HIV: have a proliferation inhibiting effect on HIV
[3]; 10 μM
  living cells (percentage to the control): 94%
[3]; 40 μM
  living cells (percentage to the control): 93%
[4]; 10 μM, 3 days
  living cells (percentage to the control): 100%
[4]; 40 μM, 3 days
  living cells (percentage to the control): 90%
[4]
  killing effect on HIV-infected cells: no killing effect on HIV-infected cells

## Cc1cn([C@H]2C[C@H](N=[N+]=[N-])[C@@H](CO)O2)c(=O)[nH]c1=O [AZT, 3'-azido-3'-deoxythymidine]
[5]
  effect on cells already infected with HIV: no effect on cells already infected with HIV
[1]; [9]
  viability at 1 µM: 55%
[6]
  side effects: a myelodepresant effect is remarkably observed as a side effect in addition to headache and gastrointestinal disorders
[2]; 1 μM
  TCID50 (quantity of infectious virus): 5.94 × 10^4 TCID50 /ml
[7]; 25 (μM), 4 days, positive control 27
  viability at 25 µM: 84%
[7]
  viability at 0.004 µM: 42%
  viability at 0.02 µM: 69%
  viability at 0.1 µM: 79%
  viability at 0.5 µM: 84%
[3]; [9]
  viability at 1 µM: 82%
[4]; Homo sapiens, MOLT-4, 72 h, 1 μM, 3 days, read-out: living cells (percentage to the control)
  viability at 1 µM: 71%

## C=CC1=C(C)c2cc3[nH]c(cc4nc(cc5[nH]c(cc1n2)c(C)c5CCC(=O)O)C(CCC(=O)O)=C4C)c(C)c3C=C [protoporphyrin]
[2]
  proliferation inhibiting effect on HIV: have a proliferation inhibiting effect on HIV
[8]
  anti-HIV activity: exhibits an anti-HIV activity
[4]
  killing effect on HIV-infected cells: no killing effect on HIV-infected cells
